Laboratory results from US8722332B2, “Macrocyclic lactone resistance marker for dirofilaria immitis” (priority 2010, dated 2014).
“Also recorded” adds a separate entry of the source. Like-named read-outs stand apart in the source and are kept apart here. Marks after values point to notes of the source that are not given here.

What was measured:
[1] = test system: mf; details: in vivo; cited from earlier work
[2] = test system: D. immitis mf; design: species or system Dirofilaria immitis; details: in vivo
[3] = test system: adult heartworms (D. immitis antigen); design: species or system Dirofilaria immitis; details: in vivo; dihydrochloride
[4] = test system: adult heartworms; details: dog, in vivo

Compound: CC[C@H](C)[C@H]1O[C@]2(CC[C@@H]1C)C[C@@H]1C[C@@H](C/C=C(\C)[C@@H](O[C@H]3C[C@H](OC)[C@@H](O[C@H]4C[C@H](OC)[C@@H](O)[C@H](C)O4)[C@H](C)O3)[C@@H](C)/C=C/C=C3\CO[C@@H]4[C@H](O)C(C)=C[C@@H](C(=O)O1)[C@]34O)O2 [IVM, ivermectin]
- dose previously shown to kill mf [1]: 0.05 mg/kg
- Microfilariae concentration in blood ([2]; po): ≧100^b mf/ml
- Microfilariae in blood (Knott's test) ([2]; po): remained continually microfilaremic; also recorded: still microfilaremic; also recorded: Knott's test +ve^a

Compound: Cl.Cl.NCCS[As](SCCN)c1ccc(Nc2nc(N)nc(N)n2)cc1 [melarsomine, melarsomine dihydrochloride]
- Antigen test DiroChek result (+ve or −ve) [3]: still negative; also recorded: DiroChek −ve^c
- Antigen test PetChek result (+ve or −ve) [3]: negative; also recorded: PetChek −ve^a
- Antigen test SNAP result (+ve or −ve) [3]: still negative; also recorded: SNAP −ve^a
- clinical signs after adulticide [4]: transitory signs consistent with death of adult heartworms

Compound: milbemycin oxime [MO]
- dose previously shown to kill mf [1]: 0.5 mg/kg
- Microfilariae in blood (Knott's test) [2]: remained continually microfilaremic; also recorded: mf were still present; also recorded: Knott's test +ve^a; also recorded: Knott's test +ve^c
